Data: paper PMC3478282, “Probing the Putative Active Site of YjdL: An Unusual Proton-Coupled Oligopeptide Transporter from E. coli” (PLoS ONE, 2012)
Residues, ends and D or L forms follow the SMILES beside them.

Tests used:
Assay type in all cases: cell-based, E. coli
[1] = target: T1, YjdL Tyr25Phe (Escherichia coli, UniProt P39276, Y25F); assay: β-Ala-Lys(AMCA) uptake and inhibition assay, YjdL Tyr25Phe; conditions: for IC50: 0.2 mM β-Ala-Lys(AMCA), 5 min incubation, pH 6.5, ±SEM, n≥3
T1 construct: expressed in transfected cells; host or cells: E. coli BL21(DE3)pLysS, pTTQ18-yjdL mutant (QuikChange)
T1 sequence (P39276 1-485 Y25F): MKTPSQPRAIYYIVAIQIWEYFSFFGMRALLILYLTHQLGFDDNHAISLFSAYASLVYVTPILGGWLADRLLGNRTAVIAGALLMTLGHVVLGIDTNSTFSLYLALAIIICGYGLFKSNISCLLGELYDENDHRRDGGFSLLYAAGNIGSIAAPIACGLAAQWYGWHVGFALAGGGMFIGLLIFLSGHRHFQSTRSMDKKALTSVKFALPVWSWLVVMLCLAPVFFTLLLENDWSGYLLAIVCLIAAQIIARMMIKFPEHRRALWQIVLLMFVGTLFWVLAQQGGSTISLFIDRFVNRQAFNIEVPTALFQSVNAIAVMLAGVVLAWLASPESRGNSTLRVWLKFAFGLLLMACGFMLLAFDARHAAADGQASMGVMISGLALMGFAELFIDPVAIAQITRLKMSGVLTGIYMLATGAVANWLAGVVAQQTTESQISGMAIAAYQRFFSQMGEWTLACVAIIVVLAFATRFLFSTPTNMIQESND
Description: (§1) Plasmids were transformed into E. coli BL21(DE3)pLysS cells by heat shock and transformants were selected on agar plates containing 100 µg/mL ampicillin and 34 µg/mL chloramphenicol. Single transformants were inoculated into 2 mL LB-media with antibiotics as above and grown overnight. The cultures were diluted 1∶50 in 5 mL LB-media with antibiotics as above, and at an OD600 of 0.5–0.8 protein expression was induced by the addition of 1 mM isopropyl β-D-1-thiogalactopyranoside (IPTG). The cells were harvested after three hours of induction by centrifugation and resuspended in uptake buffer (50 mM MES pH 6.5, 140 mM NaCl, 5.4 mM KCl, 1.8 mM CaCl2, 0.8 mM MgSO4, and 5 mM glucose).
(§2) Uptake assays were performed as previously described, [20]. In a final assay volume of 100 µL; 0.2 mM β-Ala-Lys-N-7-amino-4-methylcoumarin-3-acetic acid (β-Ala-Lys(AMCA), Biotrend) (10 µL) and various concentrations of ligands (purchased from Bachem or Sigma-Aldrich) or uptake buffer (50 µL) were incubated with bacterial cell suspension (OD600 = 10, 40 µL) at 37°C. After 5 min, the uptake was stopped by addition of 500 µL ice-cold uptake buffer followed by immediate centrifugation and washing twice in ice-cold uptake buffer. Finally the cell pellet was resuspended in 100 µL uptake buffer, and the uptake was quantified by fluorescence measurements (excitation at 340 nm and emission at 460 nm) on a Safire 2 fluorimeter. Non-specific uptake was measured as described above on IPTG-induced E. coli BL21(DE3)pLysS cells harboring the empty pTTQ18 vector. All uptake assay experiments were reproduced at least three times independently and data analyses were performed using GraphPad Prism ver. 5.

[2] = target: T2, YdgR Tyr71Phe (Escherichia coli, UniProt P77304, Y71F); assay: β-Ala-Lys(AMCA) uptake and inhibition assay, YdgR Tyr71Phe
T2 construct: host or cells: E. coli BL21(DE3)pLysS
T2 sequence (P77304 whole entry Y71F): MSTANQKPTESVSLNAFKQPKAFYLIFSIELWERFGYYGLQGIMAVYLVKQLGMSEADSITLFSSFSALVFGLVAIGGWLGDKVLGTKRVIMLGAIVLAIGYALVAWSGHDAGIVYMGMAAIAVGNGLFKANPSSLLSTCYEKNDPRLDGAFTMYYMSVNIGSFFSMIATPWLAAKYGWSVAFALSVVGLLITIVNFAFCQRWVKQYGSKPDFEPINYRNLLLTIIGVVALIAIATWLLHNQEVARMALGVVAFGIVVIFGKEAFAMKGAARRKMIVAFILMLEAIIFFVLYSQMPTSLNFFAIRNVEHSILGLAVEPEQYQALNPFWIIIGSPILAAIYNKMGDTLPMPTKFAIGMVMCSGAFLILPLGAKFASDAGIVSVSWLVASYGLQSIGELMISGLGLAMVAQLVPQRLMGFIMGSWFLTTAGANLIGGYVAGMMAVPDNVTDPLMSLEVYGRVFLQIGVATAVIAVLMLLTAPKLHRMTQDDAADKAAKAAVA
Description: as §1
as §2, with “After 5 min, the uptake was stopped by addition of 500 µL ice-cold uptake buffer followed by immediate centrifugation and washing twice in ice-cold uptake buffer.” left out, “All uptake assay experiments were reproduced at least three times independently and data analyses were performed using GraphPad Prism ver. 5.” left out

[3] = target: T3, YdgR Tyr292Ala (Escherichia coli, UniProt P77304, Y292A); assay: β-Ala-Lys(AMCA) uptake and inhibition assay, YdgR Tyr292Ala
T3 construct: host or cells: E. coli BL21(DE3)pLysS
T3 sequence (P77304 whole entry Y292A): as the sequence (P77304 whole entry Y71F) above, with F71Y, Y292A counted along it
Description: as §1
as §2, with “After 5 min, the uptake was stopped by addition of 500 µL ice-cold uptake buffer followed by immediate centrifugation and washing twice in ice-cold uptake buffer.” left out, “All uptake assay experiments were reproduced at least three times independently and data analyses were performed using GraphPad Prism ver. 5.” left out

[4] = target: T4, YdgR Tyr38Phe (Escherichia coli, UniProt P77304, Y38F); assay: β-Ala-Lys(AMCA) uptake and inhibition assay, YdgR Tyr38Phe
T4 construct: host or cells: E. coli BL21(DE3)pLysS
T4 sequence (P77304 whole entry Y38F): as the sequence (P77304 whole entry Y71F) above, with Y38F, F71Y counted along it
Description: as §1
as §2, with “After 5 min, the uptake was stopped by addition of 500 µL ice-cold uptake buffer followed by immediate centrifugation and washing twice in ice-cold uptake buffer.” left out, “All uptake assay experiments were reproduced at least three times independently and data analyses were performed using GraphPad Prism ver. 5.” left out

[5] = target: T5, YjdL Lys117Arg (Escherichia coli, UniProt P39276, K117R); assay: β-Ala-Lys(AMCA) uptake assay, YjdL Lys117Arg; conditions: 0.2 mM, 5 min, pH 6.5 (Figure 3)
T5 construct: host or cells: E. coli BL21(DE3)pLysS
T5 sequence (P39276 whole entry K117R): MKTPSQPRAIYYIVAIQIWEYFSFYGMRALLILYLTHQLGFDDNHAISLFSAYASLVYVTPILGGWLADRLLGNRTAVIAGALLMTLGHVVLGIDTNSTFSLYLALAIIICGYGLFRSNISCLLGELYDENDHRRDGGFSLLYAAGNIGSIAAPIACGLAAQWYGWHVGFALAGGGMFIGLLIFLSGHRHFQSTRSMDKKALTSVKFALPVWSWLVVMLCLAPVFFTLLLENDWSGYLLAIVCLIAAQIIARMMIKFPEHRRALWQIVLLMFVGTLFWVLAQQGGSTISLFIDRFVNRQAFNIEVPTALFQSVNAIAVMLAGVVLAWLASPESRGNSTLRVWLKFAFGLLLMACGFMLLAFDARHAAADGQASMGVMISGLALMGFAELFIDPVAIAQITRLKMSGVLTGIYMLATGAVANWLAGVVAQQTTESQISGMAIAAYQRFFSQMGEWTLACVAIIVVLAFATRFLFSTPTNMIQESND
Description: as §1
as §2, with “After 5 min, the uptake was stopped by addition of 500 µL ice-cold uptake buffer followed by immediate centrifugation and washing twice in ice-cold uptake buffer.” left out, “All uptake assay experiments were reproduced at least three times independently and data analyses were performed using GraphPad Prism ver. 5.” left out

[6] = target: T6, YjdL Lys117Gln (Escherichia coli, UniProt P39276, K117Q); assay: β-Ala-Lys(AMCA) uptake assay, YjdL Lys117Gln; conditions: 0.2 mM, 5 min, pH 6.5 (Figure 3)
T6 construct: host or cells: E. coli BL21(DE3)pLysS
T6 sequence (P39276 whole entry K117Q): as the sequence (P39276 whole entry K117R) above, with R117Q counted along it
Description: as §1
as §2, with “After 5 min, the uptake was stopped by addition of 500 µL ice-cold uptake buffer followed by immediate centrifugation and washing twice in ice-cold uptake buffer.” left out, “All uptake assay experiments were reproduced at least three times independently and data analyses were performed using GraphPad Prism ver. 5.” left out

[7] = target: T7, YjdL Tyr21Arg (Escherichia coli, UniProt P39276, Y21R); assay: β-Ala-Lys(AMCA) uptake assay, YjdL Tyr21Arg; conditions: 0.2 mM, 5 min, pH 6.5 (Figure 3)
T7 construct: host or cells: E. coli BL21(DE3)pLysS
T7 sequence (P39276 whole entry Y21R): as the sequence (P39276 whole entry K117R) above, with Y21R, R117K counted along it
Description: as §1
as §2, with “After 5 min, the uptake was stopped by addition of 500 µL ice-cold uptake buffer followed by immediate centrifugation and washing twice in ice-cold uptake buffer.” left out, “All uptake assay experiments were reproduced at least three times independently and data analyses were performed using GraphPad Prism ver. 5.” left out

[8] = target: T8, YjdL Tyr25Leu (Escherichia coli, UniProt P39276, Y25L); assay: β-Ala-Lys(AMCA) uptake assay, YjdL Tyr25Leu; conditions: 0.2 mM, 5 min, pH 6.5 (Figure 3)
T8 construct: expressed in transfected cells; host or cells: E. coli BL21(DE3)pLysS, pTTQ18-yjdL mutant (QuikChange)
T8 sequence (P39276 whole entry Y25L): as the sequence (P39276 whole entry K117R) above, with Y25L, R117K counted along it
Description: as §1
as §2, with “After 5 min, the uptake was stopped by addition of 500 µL ice-cold uptake buffer followed by immediate centrifugation and washing twice in ice-cold uptake buffer.” left out, “All uptake assay experiments were reproduced at least three times independently and data analyses were performed using GraphPad Prism ver. 5.” left out

[9] = test system: YjdL Tyr113Asn; assay: β-Ala-Lys(AMCA) uptake assay, YjdL Tyr113Asn; conditions: 0.2 mM, 5 min, pH 6.5 (Figure 3)
Description: as §1
as §2, with “After 5 min, the uptake was stopped by addition of 500 µL ice-cold uptake buffer followed by immediate centrifugation and washing twice in ice-cold uptake buffer.” left out, “All uptake assay experiments were reproduced at least three times independently and data analyses were performed using GraphPad Prism ver. 5.” left out

[10] = target: T9, WT-YdgR (Escherichia coli, UniProt P77304); assay: cell-based; conditions: IC50 (inhibition of β-Ala-Lys(AMCA) uptake)
T9 construct: expressed in transfected cells; host or cells: E. coli BL21(DE3)pLysS, pTTQ18-ydgR, IPTG-induced
T9 sequence (P77304 1-500): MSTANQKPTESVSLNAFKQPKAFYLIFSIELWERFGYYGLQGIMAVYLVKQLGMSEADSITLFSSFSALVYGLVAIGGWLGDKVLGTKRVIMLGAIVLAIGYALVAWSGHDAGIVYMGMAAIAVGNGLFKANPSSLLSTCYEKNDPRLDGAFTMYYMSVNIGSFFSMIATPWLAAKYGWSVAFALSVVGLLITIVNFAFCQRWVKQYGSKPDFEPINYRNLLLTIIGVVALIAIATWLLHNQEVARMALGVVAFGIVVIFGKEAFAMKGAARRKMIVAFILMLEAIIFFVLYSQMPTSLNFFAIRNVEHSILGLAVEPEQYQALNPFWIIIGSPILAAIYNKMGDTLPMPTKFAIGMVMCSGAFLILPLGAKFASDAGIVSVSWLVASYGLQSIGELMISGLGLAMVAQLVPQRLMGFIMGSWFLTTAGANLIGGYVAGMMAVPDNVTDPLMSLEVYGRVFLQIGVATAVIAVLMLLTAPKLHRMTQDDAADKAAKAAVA
Description: as §1, with “The cells were harvested after three hours of induction by centrifugation and resuspended in uptake buffer (50 mM MES pH 6.5, 140 mM NaCl, 5.4 mM KCl, 1.8 mM CaCl2, 0.8 mM MgSO4, and 5 mM glucose).” left out
as §2

[11] = target: T10, YdgR Tyr292Phe (Escherichia coli, UniProt P77304, Y292F); assay: β-Ala-Lys(AMCA) uptake inhibition assay, YdgR Tyr292Phe; conditions: 0.2 mM β-Ala-Lys(AMCA), 5 min incubation, pH 6.5; ±SEM, n≥3
T10 construct: host or cells: E. coli BL21(DE3)pLysS
T10 sequence (P77304 whole entry Y292F): as the sequence (P77304 whole entry Y71F) above, with F71Y, Y292F counted along it
Description: as §1
as §2, with “After 5 min, the uptake was stopped by addition of 500 µL ice-cold uptake buffer followed by immediate centrifugation and washing twice in ice-cold uptake buffer.” left out, “All uptake assay experiments were reproduced at least three times independently and data analyses were performed using GraphPad Prism ver. 5.” left out

[12] = 0.2 mM, 5 min, pH 6.5 (Figure 4)
[13] = 0.2 mM β-Ala-Lys(AMCA), 5 min incubation, pH 6.5, ±SEM, n≥3

## β-Ala-Lys-N-7-amino-4-methylcoumarin-3-acetic acid [β-Ala-Lys(AMCA)]
[1]; 0.2 mM, 5 min, pH 6.5 (Figure 3)
  β-Ala-Lys(AMCA) uptake level, YjdL Tyr25Phe: 27%
[2]; [12]
  β-Ala-Lys(AMCA) uptake level, YdgR Tyr71Phe: 27%
[3]; [12]
  increase of β-Ala-Lys(AMCA) uptake, YdgR Tyr292Ala: ~4 fold
[4]; [12]
  β-Ala-Lys(AMCA) uptake level, YdgR Tyr38Phe: 10%
[5]
  β-Ala-Lys(AMCA) uptake level, YjdL Lys117Arg: 17%
[6]
  β-Ala-Lys(AMCA) uptake level, YjdL Lys117Gln: 9%
[7]
  β-Ala-Lys(AMCA) uptake level, YjdL Tyr21Arg: 11%
[8]
  β-Ala-Lys(AMCA) uptake level, YjdL Tyr25Leu: 14%
[9]
  increase of β-Ala-Lys(AMCA) uptake, YjdL Tyr113Asn: ~2 fold

## C[C@H](N)C(=O)N[C@@H](C)C(=O)O [Ala-Ala] (H-Ala-Ala-OH)
[10]; WT-YdgR a
  IC50: 390 ± 40 µM
[10]; WT-YdgR b
  IC50: 1040 ± 60 µM
[1]
  IC50: > 50000 µM
[2]; [13]
  IC50: 370 ± 30 µM
[11]
  IC50: 150 ± 30 µM
[3]; [13]
  IC50: 590 ± 50 µM
[4]; 0.5 mM β-Ala-Lys(AMCA), 15 min incubation, pH 6.5, ±SEM, n≥3, read-out: IC50 (inhibition of β-Ala-Lys(AMCA) uptake), YdgR Tyr38Phe b
  IC50: 920 ± 60 µM

## C[C@H](N)C(=O)N[C@@H](CCCCN)C(=O)O [Ala-Lys] (H-Ala-Lys-OH)
[1]
  IC50: 400 ± 80 µM

## C[C@H](NC(=O)[C@@H](N)Cc1ccc(O)cc1)C(=O)O [Tyr-Ala]
[1]
  IC50: 33700 ± 3900 µM
